Measured values as given in patent US20260234129A1, “NOVEL IMIDAZOLE DERIVATIVE AND USE THEREOF” (PELEMED CO., LTD., priority 2023, published 2026).

Key:
Experiment in all cases: scanMax kinase panel (Eurofins)
Format in all cases: binding
[1] = target: T1, ABL1(Y253F)-phosphorylated (Homo sapiens, UniProt P00519, Y253F); conditions: read-out: % control
T1 construct: purchased Eurofins
Experimental: (§1) The following assay method was performed to evaluate the inhibitory activities of a compound according to the present invention with respect to various enzymes. […] The compound was applied to the enzyme at a concentration of 1 μM, dissolved in DMSO, and the % control was determined according to Equation 1 below.
(§2) Here, the positive control refers to a compound corresponding to 0% control, and the negative control refers to a compound corresponding to 100% control.

[2] = target: T2, ABL1-phosphorylated (Homo sapiens, UniProt P00519); conditions: read-out: % control
T2 construct: purchased Eurofins
Experimental: as §1, §2

[3] = target: T3, GSK3A (Homo sapiens, UniProt P49840); conditions: read-out: % control
T3 construct: purchased Eurofins scanMax® kinase panel
Experimental: as §1, §2

[4] = target: T4, MEK6 (Homo sapiens, UniProt P52564); conditions: MEK6, 1 μM; read-out: % control
T4 construct: purchased Eurofins scanMax kinase panel
Experimental: as §1, §2

[5] = target: T5, RET(V804M) (Homo sapiens, UniProt P07949, V804M); conditions: read-out: % control
T5 construct: purchased Eurofins scanMax kinase panel
Experimental: as §1, §2

[6] = target: T6, ABL1(M351T)-phosphorylated (Homo sapiens, UniProt P00519, M351T); conditions: read-out: % control
T6 construct: purchased Eurofins
Experimental: as §1, §2

[7] = target: T7, HASPIN (Homo sapiens, UniProt Q8TF76); conditions: read-out: % control
T7 construct: purchased Eurofins scanMax® kinase panel
Experimental: as §1, §2

[8] = target: T8, PAK2 (Homo sapiens, UniProt Q13177); conditions: PAK2, 1 μM; read-out: % control
T8 construct: purchased Eurofins scanMax kinase panel
Experimental: as §1, §2

[9] = target: T9, JAK3(JH1domain-catalytic) (Homo sapiens, UniProt P52333); conditions: read-out: % control
T9 construct: JAK3(JH1domain-catalytic); purchased Eurofins
Experimental: as §1, §2

[10] = target: T10, HIPK2 (Homo sapiens, UniProt Q9H2X6); conditions: HIPK2, 1 μM; read-out: % control
T10 construct: purchased Eurofins scanMax® kinase panel
Experimental: as §1, §2

[11] = target: T11, MEK4 (Homo sapiens, UniProt P45985); conditions: MEK4, 1 μM; read-out: % control
T11 construct: purchased Eurofins
Experimental: as §1, §2

[12] = target: T12, ERK2 (Homo sapiens, UniProt P28482); conditions: ERK2, 1 μM; read-out: % control
T12 construct: purchased Eurofins scanMax® kinase panel
Experimental: as §1, §2

[13] = target: T13, GSK3B (Homo sapiens, UniProt P49841); conditions: read-out: % control
T13 construct: purchased Eurofins scanMax® kinase panel
Experimental: as §1, §2

[14] = target: T14, ROCKI (Homo sapiens, UniProt Q13464); conditions: read-out: % control
T14 construct: purchased Eurofins scanMax kinase panel
Experimental: as §1, §2

[15] = target: T15, KIT(D816V) (Homo sapiens, UniProt P10721, D816V); conditions: read-out: % control
T15 construct: purchased Eurofins
Experimental: as §1, §2

[16] = target: T16, JAK2(JH1domain-catalytic) (Homo sapiens, UniProt O60674); conditions: read-out: % control
T16 construct: JAK2(JH1domain-catalytic); purchased Eurofins
Experimental: as §1, §2

[17] = target: T17, PAK3 (Homo sapiens, UniProt O75914); conditions: PAK3, 1 μM; read-out: % control
T17 construct: purchased Eurofins scanMax kinase panel
Experimental: as §1, §2

[18] = target: T18, PAK6 (Homo sapiens, UniProt Q9NQU5); conditions: PAK6, 1 μM; read-out: % control
T18 construct: purchased Eurofins scanMax kinase panel
Experimental: as §1, §2

[19] = target: T19, JAK1(JH2domain-pseudokinase) (Homo sapiens, UniProt P23458); conditions: read-out: % control
T19 construct: JAK1(JH2domain-pseudokinase); purchased Eurofins
Experimental: as §1, §2

[20] = target: T20, ABL1(H396P)-nonphosphorylated (Homo sapiens, UniProt P00519, H396P); conditions: read-out: % control
T20 construct: purchased Eurofins
Experimental: as §1, §2

[21] = target: T21, ERK8 (Homo sapiens, UniProt Q8TD08); conditions: ERK8, 1 μM; read-out: % control
T21 construct: purchased Eurofins scanMax® kinase panel
Experimental: as §1, §2

[22] = target: T22, MEK5 (Homo sapiens, UniProt Q13163); conditions: MEK5, 1 μM; read-out: % control
T22 construct: purchased Eurofins scanMax kinase panel
Experimental: as §1, §2

[23] = target: T23, RET(V804L) (Homo sapiens, UniProt P07949, V804L); conditions: read-out: % control
T23 construct: purchased Eurofins scanMax kinase panel
Experimental: as §1, §2

[24] = target: T24, ROCK2 (Homo sapiens, UniProt O75116); conditions: ROCK2, 1 μM; read-out: % control
T24 construct: purchased Eurofins scanMax kinase panel
Experimental: as §1, §2

[25] = target: T25, MAP3K3 (Homo sapiens, UniProt Q99759); conditions: MAP3K3, 1 μM; read-out: % control
T25 construct: purchased Eurofins
Experimental: as §1, §2

[26] = target: T26, IRAK3 (Homo sapiens, UniProt Q9Y616); conditions: IRAK3, 1 μM; read-out: % control
T26 construct: purchased Eurofins
Experimental: as §1, §2

[27] = target: T27, MEK3 (Homo sapiens, UniProt P46734); conditions: MEK3, 1 μM; read-out: % control
T27 construct: purchased Eurofins
Experimental: as §1, §2

[28] = target: T28, TRKC (Homo sapiens, UniProt Q16288); conditions: read-out: % control
T28 construct: purchased Eurofins scanMax kinase panel
Experimental: as §1, §2

[29] = target: T29, PIM1 (Homo sapiens, UniProt P11309); conditions: PIM1, 1 μM; read-out: % control
T29 construct: purchased Eurofins scanMax kinase panel
Experimental: as §1, §2

[30] = target: T30, TRKA (Homo sapiens, UniProt P04629); conditions: read-out: % control
T30 construct: purchased Eurofins scanMax kinase panel
Experimental: as §1, §2

[31] = test system: PAK5; conditions: PAK5, 1 μM
Experimental: as §1, §2

[32] = target: T31, MEKI (Homo sapiens, UniProt Q02750); conditions: read-out: % control
T31 construct: purchased Eurofins
Experimental: as §1, §2

[33] = target: T32, SRC (Homo sapiens, UniProt P12931); conditions: read-out: % control
T32 construct: purchased Eurofins scanMax kinase panel
Experimental: as §1, §2

[34] = target: T33, PAK7 (Homo sapiens, UniProt Q9P286); conditions: PAK7, 1 μM; read-out: % control
T33 construct: purchased Eurofins scanMax kinase panel
Experimental: as §1, §2

T15 sequence (P10721 26-976 D816V): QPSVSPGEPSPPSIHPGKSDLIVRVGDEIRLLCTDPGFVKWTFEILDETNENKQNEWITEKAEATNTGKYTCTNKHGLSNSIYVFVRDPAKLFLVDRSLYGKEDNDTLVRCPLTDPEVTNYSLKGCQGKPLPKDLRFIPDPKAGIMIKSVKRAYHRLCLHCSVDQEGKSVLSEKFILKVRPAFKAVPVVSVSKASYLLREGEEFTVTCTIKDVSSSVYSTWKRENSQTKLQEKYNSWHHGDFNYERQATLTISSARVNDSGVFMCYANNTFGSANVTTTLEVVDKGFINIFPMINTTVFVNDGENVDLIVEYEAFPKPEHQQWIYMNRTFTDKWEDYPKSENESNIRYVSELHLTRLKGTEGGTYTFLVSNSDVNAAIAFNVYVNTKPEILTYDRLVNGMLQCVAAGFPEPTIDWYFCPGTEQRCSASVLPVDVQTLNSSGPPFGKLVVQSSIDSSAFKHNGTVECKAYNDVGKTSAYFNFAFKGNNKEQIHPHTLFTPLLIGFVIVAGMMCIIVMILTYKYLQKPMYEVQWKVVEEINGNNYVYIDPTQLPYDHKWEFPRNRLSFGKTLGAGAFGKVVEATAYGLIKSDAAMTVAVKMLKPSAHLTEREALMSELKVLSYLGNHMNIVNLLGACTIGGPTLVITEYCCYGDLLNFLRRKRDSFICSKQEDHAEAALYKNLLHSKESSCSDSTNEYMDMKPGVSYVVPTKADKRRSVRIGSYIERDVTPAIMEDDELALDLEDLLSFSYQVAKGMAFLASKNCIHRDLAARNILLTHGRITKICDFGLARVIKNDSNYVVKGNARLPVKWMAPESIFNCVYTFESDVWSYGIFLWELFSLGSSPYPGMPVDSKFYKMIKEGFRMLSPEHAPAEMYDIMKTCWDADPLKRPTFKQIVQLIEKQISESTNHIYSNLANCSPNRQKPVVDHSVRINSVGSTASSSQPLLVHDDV
T12 sequence (P28482 whole entry): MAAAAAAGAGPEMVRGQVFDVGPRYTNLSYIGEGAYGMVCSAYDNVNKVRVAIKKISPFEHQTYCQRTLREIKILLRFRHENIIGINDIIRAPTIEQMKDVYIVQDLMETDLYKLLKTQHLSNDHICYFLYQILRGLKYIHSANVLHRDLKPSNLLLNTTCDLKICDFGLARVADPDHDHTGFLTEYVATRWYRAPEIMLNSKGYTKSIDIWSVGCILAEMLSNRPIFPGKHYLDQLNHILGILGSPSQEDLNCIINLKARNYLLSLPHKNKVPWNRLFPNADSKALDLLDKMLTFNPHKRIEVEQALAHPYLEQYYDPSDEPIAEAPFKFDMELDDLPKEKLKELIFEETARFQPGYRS
T11 sequence (P45985 whole entry): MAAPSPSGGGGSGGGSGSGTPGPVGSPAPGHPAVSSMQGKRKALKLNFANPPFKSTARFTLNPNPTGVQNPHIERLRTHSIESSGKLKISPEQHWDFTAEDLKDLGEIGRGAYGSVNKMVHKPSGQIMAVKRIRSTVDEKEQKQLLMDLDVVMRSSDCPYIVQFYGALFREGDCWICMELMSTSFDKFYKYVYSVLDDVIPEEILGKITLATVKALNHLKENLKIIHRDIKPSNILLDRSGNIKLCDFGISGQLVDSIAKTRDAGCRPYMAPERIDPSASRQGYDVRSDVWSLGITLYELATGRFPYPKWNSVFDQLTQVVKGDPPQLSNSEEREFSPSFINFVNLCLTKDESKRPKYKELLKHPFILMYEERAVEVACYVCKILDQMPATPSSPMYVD
T31 sequence (Q02750 whole entry): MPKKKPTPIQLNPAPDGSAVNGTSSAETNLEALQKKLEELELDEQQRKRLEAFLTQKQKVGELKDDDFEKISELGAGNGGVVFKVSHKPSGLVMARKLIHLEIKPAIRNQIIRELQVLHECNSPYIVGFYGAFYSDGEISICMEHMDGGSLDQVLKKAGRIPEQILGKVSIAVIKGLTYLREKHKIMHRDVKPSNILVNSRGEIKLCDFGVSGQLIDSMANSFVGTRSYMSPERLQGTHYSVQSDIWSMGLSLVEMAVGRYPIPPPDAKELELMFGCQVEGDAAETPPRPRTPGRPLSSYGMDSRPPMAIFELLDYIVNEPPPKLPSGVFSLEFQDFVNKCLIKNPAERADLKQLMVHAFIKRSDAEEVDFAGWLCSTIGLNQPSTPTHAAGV
T7 sequence (Q8TF76 whole entry): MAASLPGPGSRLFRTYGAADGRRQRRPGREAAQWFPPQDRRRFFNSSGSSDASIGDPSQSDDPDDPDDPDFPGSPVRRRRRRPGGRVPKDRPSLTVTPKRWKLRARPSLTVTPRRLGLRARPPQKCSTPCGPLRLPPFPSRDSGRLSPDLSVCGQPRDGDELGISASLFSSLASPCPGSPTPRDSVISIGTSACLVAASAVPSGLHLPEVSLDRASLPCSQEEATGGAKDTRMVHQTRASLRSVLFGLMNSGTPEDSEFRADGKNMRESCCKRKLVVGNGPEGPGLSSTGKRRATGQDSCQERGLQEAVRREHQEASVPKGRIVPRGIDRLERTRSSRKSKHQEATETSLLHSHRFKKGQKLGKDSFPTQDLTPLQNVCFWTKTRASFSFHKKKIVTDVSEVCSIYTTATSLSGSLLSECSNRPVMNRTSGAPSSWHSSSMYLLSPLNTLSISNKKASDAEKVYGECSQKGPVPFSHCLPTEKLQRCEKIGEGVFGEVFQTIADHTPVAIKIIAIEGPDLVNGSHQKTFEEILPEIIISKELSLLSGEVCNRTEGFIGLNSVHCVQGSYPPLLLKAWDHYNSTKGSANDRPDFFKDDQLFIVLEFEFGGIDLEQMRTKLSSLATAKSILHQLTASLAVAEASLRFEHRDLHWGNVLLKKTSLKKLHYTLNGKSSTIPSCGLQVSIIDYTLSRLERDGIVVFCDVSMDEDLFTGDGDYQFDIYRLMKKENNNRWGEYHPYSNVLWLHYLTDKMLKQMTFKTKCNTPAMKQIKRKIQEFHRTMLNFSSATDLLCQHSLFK
T9 sequence (P52333 822-1111 limits assumed): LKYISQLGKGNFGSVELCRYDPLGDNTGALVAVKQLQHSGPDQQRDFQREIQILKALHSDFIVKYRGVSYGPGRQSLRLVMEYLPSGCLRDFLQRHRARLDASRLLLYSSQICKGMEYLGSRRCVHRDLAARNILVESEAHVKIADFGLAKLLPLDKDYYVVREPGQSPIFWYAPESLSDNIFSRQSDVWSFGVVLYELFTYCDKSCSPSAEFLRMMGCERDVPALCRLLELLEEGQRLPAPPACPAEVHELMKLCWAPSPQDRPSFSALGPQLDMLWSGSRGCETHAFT
T24 sequence (O75116 whole entry): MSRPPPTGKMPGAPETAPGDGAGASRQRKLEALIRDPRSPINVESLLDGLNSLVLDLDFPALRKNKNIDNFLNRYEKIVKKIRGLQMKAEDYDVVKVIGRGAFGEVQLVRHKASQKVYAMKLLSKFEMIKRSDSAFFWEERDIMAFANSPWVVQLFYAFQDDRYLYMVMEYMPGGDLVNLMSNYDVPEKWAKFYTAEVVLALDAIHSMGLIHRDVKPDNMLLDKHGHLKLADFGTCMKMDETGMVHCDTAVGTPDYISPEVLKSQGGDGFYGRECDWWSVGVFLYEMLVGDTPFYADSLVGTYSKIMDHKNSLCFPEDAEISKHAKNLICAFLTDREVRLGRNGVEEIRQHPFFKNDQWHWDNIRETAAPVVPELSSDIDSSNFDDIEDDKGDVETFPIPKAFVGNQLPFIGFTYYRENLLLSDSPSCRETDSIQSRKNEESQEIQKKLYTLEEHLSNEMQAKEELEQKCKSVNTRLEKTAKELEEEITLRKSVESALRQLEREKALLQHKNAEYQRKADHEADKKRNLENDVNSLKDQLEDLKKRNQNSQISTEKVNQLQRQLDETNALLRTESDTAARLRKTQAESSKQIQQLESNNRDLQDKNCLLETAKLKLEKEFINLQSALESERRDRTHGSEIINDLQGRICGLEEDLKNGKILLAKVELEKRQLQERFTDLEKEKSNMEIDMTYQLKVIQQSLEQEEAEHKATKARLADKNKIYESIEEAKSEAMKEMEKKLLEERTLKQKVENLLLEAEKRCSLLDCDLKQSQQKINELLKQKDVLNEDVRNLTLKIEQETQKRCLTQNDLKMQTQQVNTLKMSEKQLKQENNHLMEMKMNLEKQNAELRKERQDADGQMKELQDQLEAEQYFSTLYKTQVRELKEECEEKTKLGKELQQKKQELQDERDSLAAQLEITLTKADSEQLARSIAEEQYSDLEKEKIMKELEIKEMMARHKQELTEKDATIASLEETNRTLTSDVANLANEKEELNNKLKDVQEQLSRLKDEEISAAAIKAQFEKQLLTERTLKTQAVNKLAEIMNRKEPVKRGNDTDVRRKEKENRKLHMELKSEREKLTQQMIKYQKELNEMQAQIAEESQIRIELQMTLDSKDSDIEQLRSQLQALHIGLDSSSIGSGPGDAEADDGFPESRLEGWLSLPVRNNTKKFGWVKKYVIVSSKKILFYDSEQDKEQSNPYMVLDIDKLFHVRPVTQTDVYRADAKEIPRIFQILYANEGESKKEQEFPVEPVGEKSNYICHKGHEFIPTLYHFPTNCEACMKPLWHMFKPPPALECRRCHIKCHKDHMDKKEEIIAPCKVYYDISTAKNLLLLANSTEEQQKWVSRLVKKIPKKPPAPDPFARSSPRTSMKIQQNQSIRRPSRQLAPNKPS
T4 sequence (P52564 whole entry): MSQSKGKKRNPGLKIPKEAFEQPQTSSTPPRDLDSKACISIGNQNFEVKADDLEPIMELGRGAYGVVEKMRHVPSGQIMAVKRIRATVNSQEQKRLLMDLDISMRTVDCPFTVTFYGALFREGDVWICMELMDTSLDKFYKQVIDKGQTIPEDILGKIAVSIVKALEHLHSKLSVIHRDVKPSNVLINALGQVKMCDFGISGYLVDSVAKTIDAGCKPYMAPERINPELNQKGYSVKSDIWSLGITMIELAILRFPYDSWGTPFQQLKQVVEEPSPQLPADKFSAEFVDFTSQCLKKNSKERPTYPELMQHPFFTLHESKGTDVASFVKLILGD

- remaining binding at 1 µM [1]: < 10%
- remaining binding at 1 µM [2]: < 10%
- remaining binding at 1 µM [3]: < 10%
- remaining binding at 1 µM [4]: < 10%
- remaining binding at 1 µM [5]: < 10%
- remaining binding at 1 µM [6]: < 10%
- remaining binding at 1 µM [7]: < 10%
- remaining binding at 1 µM [8]: < 10%
- remaining binding at 1 µM [9]: < 10%
- remaining binding at 1 µM [10]: < 10%
- remaining binding at 1 µM [11]: < 10%
- remaining binding at 1 µM [12]: < 10%
- remaining binding at 1 µM [13]: < 10%
- remaining binding at 1 µM [14]: < 10%
- remaining binding at 1 µM [15]: < 10%
- remaining binding at 1 µM [16]: < 10%
- remaining binding at 1 µM [17]: < 10%
- remaining binding at 1 µM [18]: < 10%
- remaining binding at 1 µM [19]: < 10%
- remaining binding at 1 µM [20]: < 10%
- remaining binding at 1 µM [22]: < 10%
- remaining binding at 1 µM [23]: < 10%
- remaining binding at 1 µM [24]: < 10%
- remaining binding at 1 µM [25]: < 10%
- remaining binding at 1 µM [26]: < 10%
- remaining binding at 1 µM [27]: < 10%
- remaining binding at 1 µM [28]: < 10%
- remaining binding at 1 µM [29]: < 10%
- remaining binding at 1 µM [30]: < 10%
- % control [31]: less than 10 % control
- remaining binding at 1 µM [32]: < 10%
- remaining binding at 1 µM [33]: < 10%
- remaining binding at 1 µM [34]: < 10%
SMILES: COc1ccc2nc(-c3n[nH]c4ccc(C(=O)N[C@H]5CC[C@H](N)C5)cc34)[nH]c2c1 [Example 32, N-((1S,3S)-3-aminocyclopentyl)-3-(6-methoxy-1H-benzo[d]imidazol-2-yl)-1H-indazole-5-carboxamide]
- remaining binding at 1 µM [21]: < 10%
